How the values were obtained:
[1] = molecular target: CLK1 (Homo sapiens, UniProt P49759); assay: KINOMEScan-based kinase selectivity assay; type: binding
Description: (§1) The KINOMEScan‐based kinase selectivity assay was performed at the DiscoverX Corporation (Fremont, CA, USA). The panel of growth inhibition assay and subsequent bioinformatics analysis (Fig EV1) were performed at Eurofins Inc. (St. […] Details of the procedures of cell proliferation assay, caspase‐3/7 activity assay, immunoblotting, and immunohistochemistry are described in Appendix Supplementary Methods.

[2] = molecular target: CLK2 (Homo sapiens, UniProt P49760); assay: KINOMEScan-based kinase selectivity assay; type: binding
CLK2, sequence (P49760 whole entry): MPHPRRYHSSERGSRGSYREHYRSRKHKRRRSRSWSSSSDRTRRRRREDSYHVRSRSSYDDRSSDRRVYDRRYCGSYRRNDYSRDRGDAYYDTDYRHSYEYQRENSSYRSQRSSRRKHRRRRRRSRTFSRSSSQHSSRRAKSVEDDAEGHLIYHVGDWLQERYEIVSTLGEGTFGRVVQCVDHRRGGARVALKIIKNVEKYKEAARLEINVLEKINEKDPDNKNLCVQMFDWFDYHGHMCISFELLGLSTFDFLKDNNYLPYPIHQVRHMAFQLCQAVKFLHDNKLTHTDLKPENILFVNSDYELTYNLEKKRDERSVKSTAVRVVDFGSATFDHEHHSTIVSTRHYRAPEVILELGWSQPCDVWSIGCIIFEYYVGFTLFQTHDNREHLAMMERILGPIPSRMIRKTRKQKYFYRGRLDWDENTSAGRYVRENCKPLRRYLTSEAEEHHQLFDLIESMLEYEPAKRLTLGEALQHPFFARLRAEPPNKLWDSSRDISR
Description: as §1

[3] = molecular target: CLK3 (Homo sapiens, UniProt P49761); assay: KINOMEScan-based kinase selectivity assay; type: binding
CLK3, sequence (P49761 whole entry): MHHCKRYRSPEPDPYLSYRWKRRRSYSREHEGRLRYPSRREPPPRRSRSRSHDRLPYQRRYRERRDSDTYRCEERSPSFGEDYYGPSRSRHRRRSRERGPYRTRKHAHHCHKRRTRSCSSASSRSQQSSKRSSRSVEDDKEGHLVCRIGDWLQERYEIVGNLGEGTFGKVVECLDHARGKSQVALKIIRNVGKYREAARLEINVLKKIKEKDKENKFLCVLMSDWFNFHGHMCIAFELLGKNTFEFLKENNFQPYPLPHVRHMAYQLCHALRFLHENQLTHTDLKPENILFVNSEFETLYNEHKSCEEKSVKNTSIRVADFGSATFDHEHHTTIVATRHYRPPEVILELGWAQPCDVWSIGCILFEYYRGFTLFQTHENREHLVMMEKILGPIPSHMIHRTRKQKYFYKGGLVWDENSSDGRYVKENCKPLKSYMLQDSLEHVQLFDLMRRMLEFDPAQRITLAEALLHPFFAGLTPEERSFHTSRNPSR
Description: as §1

[4] = molecular target: T1, CLK4 (Homo sapiens, UniProt Q9HAZ1); assay: KINOMEScan-based kinase selectivity assay; type: binding
T1 construct: purchased DiscoverX Corporation (Fremont, CA, USA)
T1 sequence (Q9HAZ1 whole entry): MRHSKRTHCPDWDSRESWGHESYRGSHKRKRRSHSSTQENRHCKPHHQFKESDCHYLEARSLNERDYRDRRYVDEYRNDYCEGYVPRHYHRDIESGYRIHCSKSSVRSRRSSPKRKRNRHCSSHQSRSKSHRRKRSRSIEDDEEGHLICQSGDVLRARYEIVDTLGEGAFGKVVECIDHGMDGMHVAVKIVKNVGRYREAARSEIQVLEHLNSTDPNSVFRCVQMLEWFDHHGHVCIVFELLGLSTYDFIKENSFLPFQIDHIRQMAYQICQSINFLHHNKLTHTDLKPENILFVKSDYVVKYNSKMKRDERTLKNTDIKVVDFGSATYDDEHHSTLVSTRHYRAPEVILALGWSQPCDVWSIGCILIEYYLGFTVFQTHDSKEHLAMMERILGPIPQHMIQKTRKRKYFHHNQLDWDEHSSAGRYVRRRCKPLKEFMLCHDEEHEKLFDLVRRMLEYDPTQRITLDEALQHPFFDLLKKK
Description: as §1

[5] = molecular target: T2, DYRK1A (Homo sapiens, UniProt Q13627); assay: KINOMEScan-based kinase selectivity assay; type: binding
T2 construct: purchased DiscoverX Corporation (Fremont, CA, USA)
Description: as §1

[6] = molecular target: T3, DYRK2 (Homo sapiens, UniProt Q92630); assay: KINOMEScan-based kinase selectivity assay; type: binding
T3 construct: purchased DiscoverX Corporation (Fremont, CA, USA)
T3 sequence (Q92630 whole entry): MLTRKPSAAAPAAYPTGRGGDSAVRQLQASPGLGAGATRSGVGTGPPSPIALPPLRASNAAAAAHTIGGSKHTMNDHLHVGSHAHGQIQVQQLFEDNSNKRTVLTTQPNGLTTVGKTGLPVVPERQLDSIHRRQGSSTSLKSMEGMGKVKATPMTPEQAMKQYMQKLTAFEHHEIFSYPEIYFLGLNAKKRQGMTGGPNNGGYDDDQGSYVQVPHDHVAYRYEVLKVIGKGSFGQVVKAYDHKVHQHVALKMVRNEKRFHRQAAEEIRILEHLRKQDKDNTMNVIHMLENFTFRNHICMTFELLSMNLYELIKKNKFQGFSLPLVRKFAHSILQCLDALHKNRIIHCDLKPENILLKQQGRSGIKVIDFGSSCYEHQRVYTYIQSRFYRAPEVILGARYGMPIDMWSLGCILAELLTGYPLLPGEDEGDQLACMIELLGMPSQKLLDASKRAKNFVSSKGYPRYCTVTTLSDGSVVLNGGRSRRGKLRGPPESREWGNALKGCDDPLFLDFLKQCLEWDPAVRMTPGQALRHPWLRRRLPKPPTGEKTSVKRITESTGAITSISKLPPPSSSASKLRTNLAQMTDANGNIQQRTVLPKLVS
Description: as §1

[7] = molecular target: T4, ERK8 (Homo sapiens, UniProt Q8TD08); assay: KINOMEScan-based kinase selectivity assay; type: binding
T4 construct: purchased DiscoverX Corporation (Fremont, CA, USA)
T4 sequence (Q8TD08 whole entry): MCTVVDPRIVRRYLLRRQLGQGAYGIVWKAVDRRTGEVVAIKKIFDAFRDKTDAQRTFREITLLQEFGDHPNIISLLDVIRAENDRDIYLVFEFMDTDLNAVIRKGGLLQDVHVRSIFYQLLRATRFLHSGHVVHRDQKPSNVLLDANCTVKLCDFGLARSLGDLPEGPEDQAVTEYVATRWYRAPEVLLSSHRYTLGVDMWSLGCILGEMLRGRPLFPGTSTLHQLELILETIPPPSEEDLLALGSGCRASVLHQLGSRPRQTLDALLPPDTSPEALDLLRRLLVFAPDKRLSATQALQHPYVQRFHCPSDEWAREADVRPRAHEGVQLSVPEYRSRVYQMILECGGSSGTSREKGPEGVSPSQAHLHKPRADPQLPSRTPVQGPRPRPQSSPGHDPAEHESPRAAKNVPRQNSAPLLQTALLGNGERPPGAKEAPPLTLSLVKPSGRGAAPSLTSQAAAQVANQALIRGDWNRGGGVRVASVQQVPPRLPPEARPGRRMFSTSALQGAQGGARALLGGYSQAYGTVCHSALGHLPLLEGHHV
Description: as §1

[8] = molecular target: T5, FLT3 D835H (Homo sapiens, UniProt P36888, D835H); assay: KINOMEScan-based kinase selectivity assay; type: binding
T5 construct: purchased DiscoverX Corporation (Fremont, CA, USA)
Description: as §1

[9] = molecular target: T6, HIPK1 (Homo sapiens, UniProt Q86Z02); assay: KINOMEScan-based kinase selectivity assay; type: binding
T6 construct: purchased DiscoverX Corporation (Fremont, CA, USA)
Description: as §1

[10] = molecular target: T7, IRAK4 (Homo sapiens, UniProt Q9NWZ3); assay: KINOMEScan-based kinase selectivity assay; type: binding
T7 construct: purchased DiscoverX Corporation (Fremont, CA, USA)
T7 sequence (Q9NWZ3 whole entry): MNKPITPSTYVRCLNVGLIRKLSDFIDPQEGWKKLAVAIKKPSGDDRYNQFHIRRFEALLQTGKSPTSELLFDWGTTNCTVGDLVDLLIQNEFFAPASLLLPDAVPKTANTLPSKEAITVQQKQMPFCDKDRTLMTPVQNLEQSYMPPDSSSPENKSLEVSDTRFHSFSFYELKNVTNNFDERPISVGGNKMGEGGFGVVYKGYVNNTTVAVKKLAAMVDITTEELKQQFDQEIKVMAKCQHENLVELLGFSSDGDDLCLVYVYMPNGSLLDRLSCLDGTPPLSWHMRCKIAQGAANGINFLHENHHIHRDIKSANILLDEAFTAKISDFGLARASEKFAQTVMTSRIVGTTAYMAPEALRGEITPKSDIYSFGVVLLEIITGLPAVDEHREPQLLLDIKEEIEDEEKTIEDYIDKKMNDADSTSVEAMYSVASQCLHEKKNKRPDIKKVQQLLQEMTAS
Description: as §1

[11] = molecular target: T8, YSK4 (Homo sapiens, UniProt Q56UN5); assay: KINOMEScan-based kinase selectivity assay; type: binding
T8 construct: purchased DiscoverX Corporation (Fremont, CA, USA)
T8 sequence (Q56UN5 whole entry): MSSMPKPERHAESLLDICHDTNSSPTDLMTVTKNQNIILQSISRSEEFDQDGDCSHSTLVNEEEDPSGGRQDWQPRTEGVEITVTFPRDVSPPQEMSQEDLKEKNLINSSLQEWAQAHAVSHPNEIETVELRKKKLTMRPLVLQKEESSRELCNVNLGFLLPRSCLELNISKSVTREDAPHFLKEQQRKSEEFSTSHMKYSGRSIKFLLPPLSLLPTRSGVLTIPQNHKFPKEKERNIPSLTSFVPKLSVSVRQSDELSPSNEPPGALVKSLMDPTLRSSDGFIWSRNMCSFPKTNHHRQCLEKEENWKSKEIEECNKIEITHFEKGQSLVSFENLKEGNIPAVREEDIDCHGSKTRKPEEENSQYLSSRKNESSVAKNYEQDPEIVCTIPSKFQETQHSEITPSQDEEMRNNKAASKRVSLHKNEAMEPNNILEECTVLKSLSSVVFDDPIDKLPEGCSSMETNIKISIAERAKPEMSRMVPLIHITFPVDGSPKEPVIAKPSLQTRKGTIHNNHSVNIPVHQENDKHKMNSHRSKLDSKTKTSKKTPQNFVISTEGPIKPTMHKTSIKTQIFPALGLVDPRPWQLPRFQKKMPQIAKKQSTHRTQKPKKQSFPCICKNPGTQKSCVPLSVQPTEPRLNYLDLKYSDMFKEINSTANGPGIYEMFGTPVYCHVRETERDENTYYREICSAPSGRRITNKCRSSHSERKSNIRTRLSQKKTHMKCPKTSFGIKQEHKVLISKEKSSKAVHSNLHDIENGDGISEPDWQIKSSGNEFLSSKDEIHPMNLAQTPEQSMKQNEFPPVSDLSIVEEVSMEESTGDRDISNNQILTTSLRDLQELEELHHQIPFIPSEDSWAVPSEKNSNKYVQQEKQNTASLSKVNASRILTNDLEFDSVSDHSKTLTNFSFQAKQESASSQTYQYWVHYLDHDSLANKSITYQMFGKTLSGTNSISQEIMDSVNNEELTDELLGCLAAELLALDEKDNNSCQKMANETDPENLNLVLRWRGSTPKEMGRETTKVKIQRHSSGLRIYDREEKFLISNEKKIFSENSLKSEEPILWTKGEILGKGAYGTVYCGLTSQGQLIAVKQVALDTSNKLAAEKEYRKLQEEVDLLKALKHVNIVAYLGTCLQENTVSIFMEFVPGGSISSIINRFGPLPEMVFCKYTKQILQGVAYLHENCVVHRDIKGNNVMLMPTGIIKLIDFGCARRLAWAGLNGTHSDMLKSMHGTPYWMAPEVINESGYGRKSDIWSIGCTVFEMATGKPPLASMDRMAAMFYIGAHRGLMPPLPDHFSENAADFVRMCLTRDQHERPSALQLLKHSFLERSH
Description: as §1

[12] = test system: 240 cancer cell lines; assay: Panel of growth inhibition assays (OncoPanel 240); type: cell-based; settings: hematological and solid cancer cell lines; 72 h; read-out: IC50 values, anti-proliferative activity
Description: (§2) The KINOMEScan‐based kinase selectivity assay was performed at the DiscoverX Corporation (Fremont, CA, USA). The panel of growth inhibition assay and subsequent bioinformatics analysis (Fig EV1) were performed at Eurofins Inc. (St. Charles, MO, USA), using OncoPanel 240 or 60. Details of the procedures of cell proliferation assay, caspase‐3/7 activity assay, immunoblotting, and immunohistochemistry are described in Appendix Supplementary Methods.
(§3) Panel of growth inhibition assay and subsequence bioinformatics analysis (at […]
(§4) A growth inhibition assay panel and subsequent bioinformatics analysis were performed at Eurofins Inc. (MO, U.S.A.) by utilizing Oncopanel240 or 60.
(§5) According to the study reports from Eurofins Inc., cells were seeded into 384 well plates at a single cell density in standardized media. After 24 hours, the test compounds were added and the plate was incubated continuously for 72 hours. Cells were then fixed and stained to visualize nuclei. The number of nuclei was counted and normalized.
(§6) Cellular response parameters were calculated using nonlinear regression to a sigmoidal single-site dose response model and the IC50 value of each cell line was calculated.
(§7) Genomic features were binned into six distinct categories, each of which was considered to be a “biomarker-positive” grouping: Mutated (non-synonymous, coding, and non-coding mutations), Amplified, Deleted, Overexpressed, Mutated or amplified (gain-of-function), and Mutated or deleted (loss-of-function). Two orthogonal significance tests were performed on each genomic feature as follows.
(§8) Student’s t-test: For each genomic feature within each of the six above categories, IC50 cell count values for biomarker-positive and biomarker-negative groups were […]

[13] = test system: CMLT1; assay: Panel of growth inhibition assays (OncoPanel 240); type: cell-based; settings: CML-T1; 72 h; leukemia; read-out: IC50 (Oncopanel, cell count)
Description: as §2, §3, §4, §5, §6, §7, §8

[14] = test system: COLO320HSR; assay: Panel of growth inhibition assays (OncoPanel 240); type: cell-based; settings: Homo sapiens, COLO-320-HSR; 72 h; colorectal cancer; read-out: IC50 (nmol/L) Oncopanel
Description: as §2, §3, §4, §5, §6, §7, §8

[15] = test system: HEL9217; assay: Panel of growth inhibition assays (OncoPanel 240); type: cell-based; settings: Homo sapiens, HEL 92.1.7; 72 h; leukemia; read-out: IC50 (Oncopanel, cell count)
Description: as §2, §3, §4, §5, §6, §7, §8

[16] = test system: HT; assay: Panel of growth inhibition assays (OncoPanel 240); type: cell-based; settings: Homo sapiens, 72 h, lymphoma, read-out: IC50 (Oncopanel, cell count)
Description: as §2, §3, §4, §5, §6, §7, §8

[17] = test system: K562; assay: Panel of growth inhibition assays (OncoPanel 240); type: cell-based; settings: Homo sapiens, 72 h, leukemia, read-out: IC50 (Oncopanel, cell count)
Description: as §2, §3, §4, §5, §6, §7, §8

[18] = test system: L428; assay: Panel of growth inhibition assays (OncoPanel 240); type: cell-based; settings: Homo sapiens, L-428; 72 h; lymphoma; read-out: IC50 (Oncopanel, cell count)
Description: as §2, §3, §4, §5, §6, §7, §8

[19] = test system: MEG01; assay: Panel of growth inhibition assays (OncoPanel 240); type: cell-based; settings: Homo sapiens, MEG-01; 72 h; leukemia; read-out: IC50 (Oncopanel, cell count)
Description: as §2, §3, §4, §5, §6, §7, §8

[20] = test system: RAJI; assay: Panel of growth inhibition assays (OncoPanel 240); type: cell-based; settings: Homo sapiens, 72 h, lymphoma, read-out: IC50 (Oncopanel, cell count)
Description: as §2, §3, §4, §5, §6, §7, §8

[21] = test system: ST486; assay: Panel of growth inhibition assays (OncoPanel 240); type: cell-based; settings: Homo sapiens, 72 h, lymphoma, read-out: IC50 (Oncopanel, cell count)
Description: as §2, §3, §4, §5, §6, §7, §8

[22] = test system: U266B1; assay: Panel of growth inhibition assays (OncoPanel 240); type: cell-based; settings: 72 h; myeloma; read-out: IC50 (Oncopanel, cell count)
Description: as §2, §3, §4, §5, §6, §7, §8

[23] = test system: MDA-MB-468 xenograft; assay: Efficacy study in MDA-MB-468 xenograft model; type: in vivo, Balb/c nude mice; settings: 50 mg/kg oral, twice daily on 2 days per week
Description: When xenografted tumors grew to a sufficient volume, the tumor diameter was measured and its volume was calculated as follows:
Tumor volume=long diameter×short diameter×short diameter×(1/2)
Mice having a tumor of size approximately 200 mm^3 were used in efficacy or in vivo pharmacodynamics studies. T‐025 was dissolved in 0.5% methylcellulose solution. For the efficacy study, after randomized grouping, mice were treated with T‐025 twice daily once or twice weekly for 2 or 3 weeks. The mouse tumor volume and body weight were measured every 2–3 days.

CLK1, sequence (P49759 whole entry): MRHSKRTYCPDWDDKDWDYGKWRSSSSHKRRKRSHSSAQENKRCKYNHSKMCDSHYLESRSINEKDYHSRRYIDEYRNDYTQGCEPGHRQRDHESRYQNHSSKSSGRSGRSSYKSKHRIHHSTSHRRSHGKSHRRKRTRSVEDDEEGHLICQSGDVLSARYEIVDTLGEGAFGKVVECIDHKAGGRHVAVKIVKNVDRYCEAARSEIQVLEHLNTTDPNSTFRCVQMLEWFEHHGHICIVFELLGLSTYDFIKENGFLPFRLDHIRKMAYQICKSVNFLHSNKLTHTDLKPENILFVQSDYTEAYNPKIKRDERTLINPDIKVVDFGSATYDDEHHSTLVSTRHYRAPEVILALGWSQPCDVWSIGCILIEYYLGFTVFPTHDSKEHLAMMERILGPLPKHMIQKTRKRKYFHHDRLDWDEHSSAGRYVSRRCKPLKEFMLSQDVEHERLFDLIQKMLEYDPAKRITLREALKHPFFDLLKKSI

SMILES: CNc1nc(NCc2ncccn2)c2c(-c3ccc4ncccc4c3)c[nH]c2n1 [T-025, N ^2‐methyl‐N ^4‐[pyrimidin‐2‐ylmethyl]‐5‐[quinolin‐6‐yl]‐7H‐pyrrolo[2,3‐d]pyrimidine‐2,4‐diamine]
- Kd [1]: 4.8 nM
- inhibition at 0.3 µM ([1]; 300 nmol/L, n = 2): 99.4%
- Kd [2]: 0.096 nM
- inhibition at 0.3 µM ([2]; 300 nmol/L, n = 2): 93.1%
- Kd [3]: 6.5 nM
- inhibition at 0.3 µM ([3]; 300 nmol/L, n = 2): 90.2%
- Kd [4]: 0.61 nM
- inhibition at 0.3 µM ([4]; 300 nmol/L, n = 2): 100%
- Kd [5]: 0.074 nM
- inhibition at 0.3 µM ([5]; 300 nmol/L, n = 2): 100%
- Kd [6]: 32 nM
- inhibition at 0.3 µM ([6]; 300 nmol/L, n = 2): 98.6%
- Kd [7]: 140 nM
- inhibition at 0.3 µM ([7]; 300 nmol/L, n = 2): 94.8%
- Kd [8]: 94 nM
- inhibition at 0.3 µM ([8]; 300 nmol/L, n = 2): 98.8%
- Kd [9]: 55 nM
- inhibition at 0.3 µM ([9]; 300 nmol/L, n = 2): 94.6%
- Kd [10]: 54 nM
- inhibition at 0.3 µM ([10]; 300 nmol/L, n = 2): 94.8%
- Kd [11]: 33 nM
- inhibition at 0.3 µM ([11]; 300 nmol/L, n = 2): 97.5%
- IC50 [12]: 30 to 300 nM
- IC50 [13]: 69.7 nM
- IC50 [14]: 30.1 nmol/L
- IC50 [15]: 38.3 nM
- IC50 [16]: 228 nM
- IC50 [17]: 129 nM
- IC50 [18]: 116 nM
- IC50 [19]: 305 nM
- IC50 [20]: 84.7 nM
- IC50 [21]: 57.1 nM
- IC50 [22]: 35.1 nM
- nadir body weight loss ([23]; 3 weeks, near the maximum tolerated dose): < 10%
- anti-tumor effect, tumor volume ([23]; end of 3-week treatment cycle): tumor volumes had shrunk relative to the initial volumes
